ChEMBL document CHEMBL1133086, “Design, synthesis, and X-ray crystal structure of a potent dual inhibitor of thymidylate synthase and dihydrofolate reductase as an antitumor agent” (J Med Chem, 2000)

Experiments:
[1] = target: T1, Bifunctional dihydrofolate reductase-thymidylate synthase (Toxoplasma gondii, UniProt Q07422)
T1 sequence (Q07422 whole entry): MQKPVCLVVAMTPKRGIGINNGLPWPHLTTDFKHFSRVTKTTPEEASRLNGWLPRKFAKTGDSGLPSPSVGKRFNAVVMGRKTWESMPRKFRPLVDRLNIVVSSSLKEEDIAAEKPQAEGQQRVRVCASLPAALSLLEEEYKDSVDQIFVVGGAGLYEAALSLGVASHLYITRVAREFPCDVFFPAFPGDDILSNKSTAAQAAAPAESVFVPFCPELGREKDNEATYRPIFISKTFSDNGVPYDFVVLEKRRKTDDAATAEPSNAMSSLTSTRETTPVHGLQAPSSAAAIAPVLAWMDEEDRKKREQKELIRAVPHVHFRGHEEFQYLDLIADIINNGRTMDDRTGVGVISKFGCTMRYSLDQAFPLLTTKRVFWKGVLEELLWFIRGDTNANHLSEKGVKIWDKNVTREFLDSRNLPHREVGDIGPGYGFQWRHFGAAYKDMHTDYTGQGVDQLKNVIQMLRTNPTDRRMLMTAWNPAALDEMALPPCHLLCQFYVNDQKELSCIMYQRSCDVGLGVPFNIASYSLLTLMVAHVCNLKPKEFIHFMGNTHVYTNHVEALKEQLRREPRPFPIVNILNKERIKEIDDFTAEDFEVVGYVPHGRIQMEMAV
Description: Inhibitory concentration against isolated Toxoplasma gondii DHFR (dihydrofolate reductase)

Dihydrofolate reductase [2] = target: Dihydrofolate reductase (Lactobacillus casei, UniProt P00381); assay: Inhibitory concentration against isolated Lactobacillus casei Dihydrofolate reductase; set-up: species or system Lacticaseibacillus casei
Chain of Dihydrofolate reductase (Lactobacillus casei, UniProt P00381) (P00381 whole entry): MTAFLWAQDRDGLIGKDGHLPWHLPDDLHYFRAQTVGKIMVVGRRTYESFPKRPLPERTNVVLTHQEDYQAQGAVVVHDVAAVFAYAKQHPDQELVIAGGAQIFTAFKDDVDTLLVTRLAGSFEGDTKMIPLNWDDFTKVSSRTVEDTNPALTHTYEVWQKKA

Dihydrofolate reductase [3] = target: T2, Dihydrofolate reductase (Pneumocystis carinii, UniProt P16184)
T2 sequence (P16184 whole entry): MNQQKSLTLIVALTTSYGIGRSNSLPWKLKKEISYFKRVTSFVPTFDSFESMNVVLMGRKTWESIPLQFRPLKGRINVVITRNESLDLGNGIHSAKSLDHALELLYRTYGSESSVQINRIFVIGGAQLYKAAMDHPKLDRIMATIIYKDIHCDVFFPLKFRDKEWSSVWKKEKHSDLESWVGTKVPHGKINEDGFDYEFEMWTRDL
Description: Inhibitory concentration against isolated Pneumocystis carinii DHFR (Dihydrofolate reductase)

Dihydrofolate reductase [4] = target: T3, Dihydrofolate reductase (Homo sapiens, UniProt P00374); assay: Inhibitory concentration against isolated human Dihydrofolate reductase
T3 sequence (P00374 whole entry): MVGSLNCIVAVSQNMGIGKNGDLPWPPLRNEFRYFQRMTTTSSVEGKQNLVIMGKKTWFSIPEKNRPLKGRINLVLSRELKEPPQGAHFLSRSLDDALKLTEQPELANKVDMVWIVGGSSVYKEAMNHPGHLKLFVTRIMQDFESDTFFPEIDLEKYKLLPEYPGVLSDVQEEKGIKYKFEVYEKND

Dihydrofolate reductase [5] = target: Dihydrofolate reductase (Escherichia coli, UniProt P0ABQ4)
Chain of Dihydrofolate reductase (Escherichia coli, UniProt P0ABQ4) (P0ABQ4 whole entry): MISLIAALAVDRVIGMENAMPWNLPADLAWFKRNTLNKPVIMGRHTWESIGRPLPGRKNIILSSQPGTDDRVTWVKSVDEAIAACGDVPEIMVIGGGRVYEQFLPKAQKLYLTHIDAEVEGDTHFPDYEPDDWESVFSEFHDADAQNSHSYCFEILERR
Description: Inhibitory concentration against isolated Escherichia coli Dihydrofolate reductase

Thymidylate synthase [6] = target: T4, Thymidylate synthase (Homo sapiens, UniProt P04818); assay: Inhibitory concentration against isolated Thymidylate synthase
T4 sequence (P04818 whole entry): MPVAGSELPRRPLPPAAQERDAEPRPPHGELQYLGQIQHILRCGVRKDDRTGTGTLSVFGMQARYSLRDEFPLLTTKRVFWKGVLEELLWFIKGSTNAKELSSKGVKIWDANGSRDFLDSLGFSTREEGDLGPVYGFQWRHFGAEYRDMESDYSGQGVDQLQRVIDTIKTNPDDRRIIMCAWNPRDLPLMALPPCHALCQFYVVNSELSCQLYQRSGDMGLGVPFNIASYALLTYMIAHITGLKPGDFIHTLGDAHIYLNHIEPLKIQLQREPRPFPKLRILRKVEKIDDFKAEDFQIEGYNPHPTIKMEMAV

Thymidylate synthase [7] = target: T5, Thymidylate synthase (Lactobacillus casei, UniProt P00469); assay: Inhibitory concentration against isolated Lactobacillus casei Thymidylate synthase; set-up: species or system Lacticaseibacillus casei
T5 sequence (P00469 whole entry): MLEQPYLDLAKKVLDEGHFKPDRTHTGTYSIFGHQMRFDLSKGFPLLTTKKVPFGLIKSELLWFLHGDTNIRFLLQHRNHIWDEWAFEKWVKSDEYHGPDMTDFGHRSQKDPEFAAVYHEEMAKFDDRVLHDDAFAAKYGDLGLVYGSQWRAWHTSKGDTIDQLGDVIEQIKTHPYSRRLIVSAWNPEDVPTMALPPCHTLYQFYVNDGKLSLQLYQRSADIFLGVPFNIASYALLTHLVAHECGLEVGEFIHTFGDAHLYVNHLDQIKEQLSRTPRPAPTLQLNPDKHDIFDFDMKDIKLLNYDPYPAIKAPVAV

Thymidylate synthase [8] = target: Thymidylate synthase (Rattus norvegicus, UniProt P45352); assay: Inhibitory concentration against isolated rat thymidylate synthase
Chain of Thymidylate synthase (Rattus norvegicus, UniProt P45352) (P45352 whole entry): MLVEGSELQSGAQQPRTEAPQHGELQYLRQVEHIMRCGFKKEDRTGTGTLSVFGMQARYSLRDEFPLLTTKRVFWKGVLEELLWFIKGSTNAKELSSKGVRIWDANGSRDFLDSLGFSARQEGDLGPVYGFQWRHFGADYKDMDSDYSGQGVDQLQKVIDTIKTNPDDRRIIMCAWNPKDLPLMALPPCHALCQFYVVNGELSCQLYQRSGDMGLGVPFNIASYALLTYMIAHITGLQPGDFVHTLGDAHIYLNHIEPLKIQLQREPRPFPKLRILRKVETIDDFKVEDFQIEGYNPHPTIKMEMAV

CCRF-CEM [9] = assay: Growth inhibition of human T-lymphoblastic leukemia cell line CCRF-CEM in culture; assay type: functional; conditions: read-out: ED50 (the source's name)
Homo sapiens [10] = species on record: Homo sapiens; assay: The maximum velocity at which substrate concentration is stabilised is determined for compound as substrate for recombinant human folyl-poly-glutamate synthase (FPGS); assay type: ADME; conditions: in vivo
CCRF-CEM [11] = assay: Tested for their growth inhibition of CCRF-CEM human leukemia subline resistant as a result of decrease polyglutamylation.; assay type: functional, cell-based
CCRF-CEM [12] = assay: Concentration required to inhibit growth against CCRF-CEM cell; assay type: functional, cell-based; conditions: Homo sapiens
carcinoma cell line [13] = assay: Tested for their inhibition of growth of FaDu head on carcinoma cell lines.; assay type: functional, cell-based; conditions: Homo sapiens
Homo sapiens [14] = species on record: Homo sapiens; assay: Ratio between Vmax and Km for compound as substrate for recombinant human folyl-poly-glutamate synthase (FPGS); assay type: ADME; conditions: in vivo
carcinoma cell line [15] = assay: Tested for their inhibition of growth of CCRF-CEM human leukemia on carcinoma cell lines.; assay type: functional, cell-based
Thymidylate synthase [16] = target: Thymidylate synthase (Escherichia coli, UniProt C3SWJ7); assay: Inhibitory concentration against isolated Escherichia coli Thymidylate synthase
Chain of Thymidylate synthase (Escherichia coli, UniProt C3SWJ7) (C3SWJ7 whole entry): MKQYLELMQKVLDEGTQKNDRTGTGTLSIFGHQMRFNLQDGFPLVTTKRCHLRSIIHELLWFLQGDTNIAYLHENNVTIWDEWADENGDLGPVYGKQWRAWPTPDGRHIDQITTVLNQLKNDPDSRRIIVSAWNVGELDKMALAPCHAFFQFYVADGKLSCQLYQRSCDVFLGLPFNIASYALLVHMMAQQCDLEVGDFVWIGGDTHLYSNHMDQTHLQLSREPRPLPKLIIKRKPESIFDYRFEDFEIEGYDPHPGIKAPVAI

Thymidylate synthase [17] = target: T4, Thymidylate synthase; assay: Inhibitory concentration against human Thymidylate synthase(TS)
[18] = target: Trifunctional purine biosynthetic protein adenosine-3 (Homo sapiens, UniProt P22102); assay: Inhibition against GAR transformylase; In active
Chain of Trifunctional purine biosynthetic protein adenosine-3 (P22102 whole entry): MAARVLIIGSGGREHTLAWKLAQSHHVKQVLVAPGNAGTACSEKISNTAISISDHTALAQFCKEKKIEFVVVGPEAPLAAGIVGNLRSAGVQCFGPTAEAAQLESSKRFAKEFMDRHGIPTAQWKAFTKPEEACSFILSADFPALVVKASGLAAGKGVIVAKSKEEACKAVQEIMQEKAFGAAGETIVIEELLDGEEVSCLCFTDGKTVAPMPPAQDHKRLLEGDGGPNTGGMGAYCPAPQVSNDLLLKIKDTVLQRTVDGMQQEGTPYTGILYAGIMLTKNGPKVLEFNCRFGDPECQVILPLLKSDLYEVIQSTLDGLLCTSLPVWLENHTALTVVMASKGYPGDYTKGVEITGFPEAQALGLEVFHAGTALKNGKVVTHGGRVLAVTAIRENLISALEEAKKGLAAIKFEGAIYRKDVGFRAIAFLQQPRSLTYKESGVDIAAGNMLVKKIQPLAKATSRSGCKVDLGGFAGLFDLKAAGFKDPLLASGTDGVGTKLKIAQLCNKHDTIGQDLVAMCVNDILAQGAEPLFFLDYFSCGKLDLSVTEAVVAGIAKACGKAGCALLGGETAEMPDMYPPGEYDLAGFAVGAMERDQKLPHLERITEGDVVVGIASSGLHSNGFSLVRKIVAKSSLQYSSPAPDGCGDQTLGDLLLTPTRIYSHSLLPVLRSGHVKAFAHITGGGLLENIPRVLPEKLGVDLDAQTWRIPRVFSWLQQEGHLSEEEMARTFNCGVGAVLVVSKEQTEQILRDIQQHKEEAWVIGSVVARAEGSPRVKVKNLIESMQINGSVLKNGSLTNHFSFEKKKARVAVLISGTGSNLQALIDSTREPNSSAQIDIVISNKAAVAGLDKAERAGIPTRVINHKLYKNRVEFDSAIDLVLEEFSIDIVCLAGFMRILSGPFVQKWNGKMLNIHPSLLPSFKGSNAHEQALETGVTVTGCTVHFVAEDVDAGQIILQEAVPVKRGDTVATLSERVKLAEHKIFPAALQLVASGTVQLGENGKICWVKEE

FaDu = assay: Growth inhibition of human squamous cell carcinoma FaDu in culture; assay type: functional; conditions: read-out: ED50 (the source's name)
[19] = target: T6, Bifunctional purine biosynthesis protein ATIC (Homo sapiens, UniProt P31939); assay: Inhibition against […]-4-carboxamide ribonucleotide formyltransferase (AICAR formyltransferase); inactive
T6 sequence (P31939 whole entry): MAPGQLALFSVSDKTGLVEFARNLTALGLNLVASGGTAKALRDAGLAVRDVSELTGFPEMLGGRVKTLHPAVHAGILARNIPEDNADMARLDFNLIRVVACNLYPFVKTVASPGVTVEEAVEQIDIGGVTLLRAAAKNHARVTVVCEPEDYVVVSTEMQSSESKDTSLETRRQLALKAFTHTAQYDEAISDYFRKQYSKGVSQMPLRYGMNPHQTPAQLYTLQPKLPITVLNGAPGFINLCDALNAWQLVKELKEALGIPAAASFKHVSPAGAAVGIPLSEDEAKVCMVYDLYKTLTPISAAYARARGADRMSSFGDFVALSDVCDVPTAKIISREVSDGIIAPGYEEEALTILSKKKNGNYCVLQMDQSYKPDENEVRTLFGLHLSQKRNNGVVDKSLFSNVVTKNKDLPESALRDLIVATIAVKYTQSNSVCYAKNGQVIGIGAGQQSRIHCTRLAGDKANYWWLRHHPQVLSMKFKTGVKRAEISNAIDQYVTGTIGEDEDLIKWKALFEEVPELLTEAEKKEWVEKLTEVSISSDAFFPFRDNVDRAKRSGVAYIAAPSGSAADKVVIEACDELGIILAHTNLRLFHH

Thymidylate synthase [20] = target: T4, Thymidylate synthase; assay: Inhibitory concentration against human TS
[21] = target: T6, Bifunctional purine biosynthesis protein ATIC; assay: Inhibition against […]-4-carboxamide ribonucleotide formyltransferase (AICAR formyltransferase); In active
MOLT-4 = assay: Cytotoxicity against leukemia MOLT-4 tumor cell lines.; assay type: functional; conditions: Homo sapiens
MCF7 = assay: Cytotoxicity was tested against breast cancer MCF-7 tumor cell lines.; assay type: functional; conditions: Homo sapiens
CCRF-CEM [22] = assay: Tested for their growth inhibition of CCRF-CEM human leukemia subline resistant as a result of increase in wild type DHFR protein and activity.; assay type: functional, cell-based
SF-539 = assay: Cytotoxicity was tested against CNS cancer SF-539 tumor cell lines.; assay type: functional; conditions: Homo sapiens
ACHN = assay: Cytotoxicity was tested against renal cancer ACHN tumor cell lines.; assay type: functional; conditions: Homo sapiens
CCRF-CEM [23] = assay: Tested for their growth inhibition of CCRF-CEM human leukemia subline resistant as a result of decrease in uptake.; assay type: functional, cell-based
NCI-H460 = assay: Cytotoxicity against non small cell lung cancer NCI-H460 tumor cell lines.; assay type: functional; conditions: Homo sapiens
NCI-H226 = assay: Cytotoxicity against non small cell lung cancer NCI-H226 tumor cell lines.; assay type: functional; conditions: Homo sapiens
HCT-116 = assay: Cytotoxicity was tested against colon cancer HCT116 tumor cell lines.; assay type: functional; conditions: Homo sapiens
HCC 2998 = assay: Cytotoxicity against colon cancer HCC2998 tumor cell lines.; assay type: functional; conditions: Homo sapiens
[24] = substrate: Cc1nc(N)nc2c1c(CCc1ccc(C(=O)N[C@@H](CCC(=O)O)C(=O)O)cc1)cn2Cc1ccccc1; assay: (§1) Activity as substrate for recombinant human folyl-poly-glutamate synthase (FPGS).
[25] = substrate: Cc1nc(N)nc2[nH]cc(CCc3ccc(C(=O)N[C@@H](CCC(=O)O)C(=O)O)cc3)c12; assay: as §1

Cc1cn([C@@H]2O[C@H](COP(=O)(O)O)[C@@H](O)[C@H]2O)c(=O)[nH]c1=O
IC50 [1]: 3400 nM
IC50 (Dihydrofolate reductase [2]): 350 nM
IC50 (Dihydrofolate reductase [3]): 15000 nM
IC50 (Dihydrofolate reductase [4]): 340000 nM
IC50 (Dihydrofolate reductase [5]): 20 nM

Nc1nc2[nH]cc(CCc3ccc(C(=O)N[C@@H](CCC(=O)O)C(=O)O)cc3)c2c(=O)[nH]1 [PEMETREXED]
IC50 (Thymidylate synthase [6]): 110000 nM
IC50 (Thymidylate synthase [7]): 20000 nM
IC50 (Thymidylate synthase [8]): 20000 nM

Cc1nc2ccc(CN(C)c3ccc(C(=O)N[C@@H](CCC(=O)O)C(=O)O)s3)cc2c(=O)[nH]1 [RALTITREXED]
IC50 (Thymidylate synthase [7]): 8000 nM
IC50 (Thymidylate synthase [8]): 900 nM

Nc1nc(N)c2c(CNCc3ccc(C(=O)N[C@@H](CCC(=O)O)C(=O)O)cc3)coc2n1
EC50 (CCRF-CEM [9]): 30500 nM

Cc1nc(N)nc2c1c(CCc1ccc(C(=O)N[C@@H](CCC(=O)O)C(=O)O)cc1)cn2Cc1ccccc1
Vmax (Homo sapiens [10]): 0.65
IC50 (CCRF-CEM [11]): > 20000 nM
IC50 [1]: > 19000 nM
IC50 (Dihydrofolate reductase [2]): 19000 nM
IC50 (Dihydrofolate reductase [3]): > 19000 nM
IC50 (CCRF-CEM [12]): > 10000 nM
IC50 (carcinoma cell line [13]): > 20000 nM
IC50 (Thymidylate synthase [6]): > 16000 nM
Ratio (Homo sapiens [14]): 0.02
IC50 (Thymidylate synthase [7]): 310 nM
IC50 (carcinoma cell line [15]): > 10000 nM
IC50 (Dihydrofolate reductase [4]): > 19000 nM
IC50 (Dihydrofolate reductase [5]): > 19000 nM
IC50 (Thymidylate synthase [8]): > 16000 nM
IC50 (Thymidylate synthase [16]): 16000 nM

CN(Cc1coc2nc(N)nc(N)c12)c1ccc(C(=O)N[C@@H](CCC(=O)O)C(=O)O)cc1 [FURO[2,3D]PYRIMIDINE ANTIFOLATE]
IC50 (Thymidylate synthase [17]): > 200000 nM
IC50 [18]: Not Active
EC50 (CCRF-CEM [9]): 47 nM
EC50 (FaDu): 55 nM
IC50 [19]: Not Active

Nc1nc(N)c2nc(CNc3ccc(C(=O)N[C@@H](CCC(=O)O)C(=O)O)cc3)cnc2n1 [AMINOPTERIN]
Vmax (Homo sapiens [10]): 1
Ratio (Homo sapiens [14]): 0.21

Nc1nc(N)c2c(CNc3ccc(C(=O)N[C@@H](CCC(=O)O)C(=O)O)cc3)coc2n1
IC50 (Thymidylate synthase [20]): > 200000 nM
IC50 [18]: Not Active
IC50 [21]: Not Active

Nc1nc(N)c2c(CCc3ccc(C(=O)N[C@@H](CCC(=O)O)C(=O)O)cc3)coc2n1
EC50 (CCRF-CEM [9]): 250 nM

Cc1nc(N)nc2[nH]cc(CCc3ccc(C(=O)N[C@@H](CCC(=O)O)C(=O)O)cc3)c12
GI50 (MOLT-4): < 10 nM
Vmax (Homo sapiens [10]): 0.17
EC50 (CCRF-CEM [11]): 18.5 nM
GI50 (MCF7): 169 nM
EC50 (CCRF-CEM [22]): 158 nM
IC50 [1]: 1200 nM
IC50 (Dihydrofolate reductase [2]): 24 nM
GI50 (SF-539): < 10 nM
GI50 (ACHN): < 10 nM
IC50 (Dihydrofolate reductase [3]): 1200 nM
EC50 (CCRF-CEM [12]): 12.5 nM
EC50 (carcinoma cell line [13]): 7 nM
IC50 (Thymidylate synthase [6]): 1000 nM
EC50 (CCRF-CEM [23]): 575 nM
GI50 (NCI-H460): < 10 nM
IC50 (Thymidylate synthase [7]): 9000 nM
GI50 (NCI-H226): 61.4 nM
EC50 (carcinoma cell line [15]): 12.5 nM
IC50 (Dihydrofolate reductase [4]): 800 nM
IC50 (Thymidylate synthase [8]): 2000 nM
IC50 (Thymidylate synthase [16]): 2000 nM
GI50 (HCT-116): 7110 nM
GI50 (HCC 2998): < 10 nM

B1: Folylpolyglutamate synthase, mitochondrial (Homo sapiens), Q05932 (protein)
chain: MSRARSHLRAALFLAAASARGITTQVAARRGLSAWPVPQEPSMEYQDAVRMLNTLQTNAGYLEQVKRQRGDPQTQLEAMELYLARSGLQVEDLDRLNIIHVTGTKGKGSTCAFTECILRSYGLKTGFFSSPHLVQVRERIRINGQPISPELFTKYFWRLYHRLEETKDGSCVSMPPYFRFLTLMAFHVFLQEKVDLAVVEVGIGGAYDCTNIIRKPVVCGVSSLGIDHTSLLGDTVEKIAWQKGGIFKQGVPAFTVLQPEGPLAVLRDRAQQISCPLYLCPMLEALEEGGPPLTLGLEGEHQRSNAALALQLAHCWLQRQDRHGAGEPKASRPGLLWQLPLAPVFQPTSHMRLGLRNTEWPGRTQVLRRGPLTWYLDGAHTASSAQACVRWFRQALQGRERPSGGPEVRVLLFNATGDRDPAALLKLLQPCQFDYAVFCPNLTEVSSTGNADQQNFTVTLDQVLLRCLEHQQHWNHLDEEQASPDLWSAPSPEPGGSASLLLAPHPPHTCSASSLVFSCISHALQWISQGRDPIFQPPSPPKGLLTHPVAHSGASILREAAAIHVLVTGSLHLVGGVLKLLEPALSQ
Km [24]: 37 µM
Km [25]: < 1 µM
